Our source for the IC50 values is EP4227307A1 (Genzyme Corporation, priority 2022, dated 2023).

The structures appear in SMILES notation. pIC50: −log10 of the molar value. Counter-ions that a name gives are not always drawn.

Usually pIC50 stands for −log10 of the IC50, conventionally taken in molar units.

The target of the experiment is T1, human recombinant 6His-Nterm SHP2 full-length (Thr2-Arg593) (Homo sapiens, UniProt Q06124).
T1 construct: 6His-Nterm SHP2 full-length (Thr2-Arg593, R&D system); 6His (N); purchased R&D system
T1 sequence (Q06124 2-593): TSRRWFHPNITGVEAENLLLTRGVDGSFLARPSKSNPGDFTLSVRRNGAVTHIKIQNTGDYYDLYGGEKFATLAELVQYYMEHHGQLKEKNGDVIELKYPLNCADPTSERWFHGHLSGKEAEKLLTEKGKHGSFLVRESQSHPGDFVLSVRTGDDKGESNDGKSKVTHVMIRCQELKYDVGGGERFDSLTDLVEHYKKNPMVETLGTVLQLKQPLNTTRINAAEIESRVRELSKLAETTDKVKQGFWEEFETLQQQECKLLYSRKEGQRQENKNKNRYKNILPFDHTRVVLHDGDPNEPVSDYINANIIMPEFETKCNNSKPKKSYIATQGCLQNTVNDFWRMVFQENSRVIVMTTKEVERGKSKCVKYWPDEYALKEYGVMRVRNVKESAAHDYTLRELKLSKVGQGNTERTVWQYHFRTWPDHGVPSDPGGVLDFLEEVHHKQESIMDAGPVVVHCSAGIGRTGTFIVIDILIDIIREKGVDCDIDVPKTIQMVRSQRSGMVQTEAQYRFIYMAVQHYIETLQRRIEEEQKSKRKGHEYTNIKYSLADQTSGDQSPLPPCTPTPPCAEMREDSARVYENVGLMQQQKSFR
In words: SHP2 Phosphatase Assay (DiFMUP fluorescence). In kind it is biochemical. The note with it: SHP2 0.2 nM pre-incubated with 100 nM bi-phosphorylated activating peptide; compound 1000-0.05 nM, 30 min pre-incubation; DiFMUP 20 µM, 45 min, room temperature; 10-concentration dose-response. In a few lines: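 SHP2 (0.2 nM) preactivated ≥10 min with 100 nM bis-phosphorylated peptide, then 30 min with compound (10 concentrations, 1000–0.05 nM) at room temperature, pH 7.2 HEPES buffer with DTT. DiFMUP (20 µM, added solution) reacted 45 min, pervanadate-stopped; fluorescence 350/450 nm. IC50 by 4-parameter logistic fit.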
As to `Cc1nc(N2CCC3(CC2)Cc2ncccc2[C@H]3N)c2ccnn2c1-c1ccc(Cl)s1` [Compound 53, (5S)-1'-[7-(5-chloro-2-thienyl)-6-methyl-pyrazolo[1,5-a]pyrazin-4-yl]spiro[5,7-dihydrocyclopenta[b]pyridine-6,4'-piperidine]-5-amine], the pIC50 was 8.52.
In the case of `Cc1nc(N2CCC3(CC2)Cc2ncccc2[C@H]3N)c2ccnn2c1-c1ccsc1Cl` [Compound 54, (5S)-1'-[7-(2-chloro-3-thienyl)-6-methyl-pyrazolo[1,5-a]pyrazin-4-yl]spiro[5,7-dihydrocyclopenta[b]pyridine-6,4'-piperidine]-5-amine] it was 8.40; in that of `Cc1nc(N2CCC3(CC2)Cc2ncc(C(F)F)cc2[C@H]3N)c2ccnn2c1-c1cnn(C)c1C` [Compound 55, (5S)-3-(difluoromethyl)-1'-[7-(1,5-dimethylpyrazol-4-yl)-6-methyl-pyrazolo[1,5-a]pyrazin-4-yl]spiro [5,7-dihydrocyclopenta[b]pyridine-6,4'-piperidine]-5-amine], 7.52; in that of `COc1ccc2c(n1)CC1(CCN(c3nc(C)c(-c4ccccc4F)n4nccc34)CC1)[C@@H]2N` [Compound 56, (5S)-1'-[7-(2-fluorophenyl)-6-methyl-pyrazolo[1,5-a]pyrazin-4-yl]-2-methoxy-spiro[5,7-dihydrocyclopenta[b]pyridine-6,4'-piperidine]-5-amine], 7.77.
In the case of `[2H]c1c([2H])c([2H])c(-c2c(C)nc(N3CCC4(CC3)Cc3ncccc3[C@H]4N)c3ccnn23)c([2H])c1[2H]` [Compound 57, (5S)-1'-[6-methyl-7-(2,3,4,5,6-pentadeuteriophenyl)pyrazolo [1,5-a]pyrazin-4-yl]spiro[5,7-dihydrocyclopenta[b]pyridine-6,4'-piperidine]-5-amine] it was 8.00.
In the case of `Cc1nc(N2CCC3(CC2)Cc2cc(CO)ncc2[C@H]3N)c2ccnn2c1-c1ccccc1F` [Compound 59, [(7S)-7-amino-1'-[7-(2-fluorophenyl)-6-methyl-pyrazolo[1,5-a]pyrazin-4-yl]spiro[5,7-dihydrocyclopenta[c]pyridine-6,4'-piperidine]-3-yl]methanol] it was 7.96.
For `Cc1cc2c(cn1)[C@@H](N)C1(CCN(c3nc(C)c(-c4ccccc4F)n4nccc34)CC1)C2` [Compound 60, (7S)-1'-[7-(2-fluorophenyl)-6-methyl-pyrazolo[1,5-a]pyrazin-4-yl]-3-methyl-spiro[5,7-dihydrocyclopenta[c]pyridine-6,4'-piperidine]-7-amine], the pIC50 was 8.15.
The figure for `Cc1nc(N2CCC3(CC2)Cc2nc(C(F)F)ccc2[C@H]3N)c2ccnn2c1-c1cnn(C)c1C` [Compound 61, (5S)-2-(difluoromethyl)-1'-[7-(1,5-dimethylpyrazol-4-yl)-6-methyl-pyrazolo[1,5-a]pyrazin-4-yl]spiro [5,7-dihydrocyclopenta[b]pyridine-6,4'-piperidine]-5-amine] is 6.68.
For `COc1ccc2c(c1)CC1(CCN(c3nc(C)c(-c4cnn(C)c4C)n4nccc34)CC1)[C@@H]2N` [Compound 62, (1S)-1'-[7-(1,5-dimethylpyrazol-4-yl)-6-methyl-pyrazolo[1,5-a]pyrazin-4-yl]-5-methoxy-spiro[indane-2,4'-piperidine]-1-amine], the pIC50 is 7.77.
Take `Cc1nc(N2CCC3(CC2)Cc2nccnc2[C@H]3N)c2ccnn2c1-c1ccccc1F` [Compound 63, (5S)-1'-[7-(2-fluorophenyl)-6-methyl-pyrazolo[1,5-a]pyrazin-4-yl]spiro[5,7-dihydrocyclopenta[b]pyrazine-6,4'-piperidine]-5-amine]: the pIC50 is 6.95.
In the case of `Cc1nc(N2CCC3(CC2)Cc2c(F)cccc2[C@H]3N)c2ccnn2c1-c1ccccc1F` [Compound 64, (1S)-4-Fluoro-1'-[7-(2-fluorophenyl)-6-methyl-pyrazolo[1,5-a]pyrazin-4-yl]spiro[indane-2,4'-piperidine]-1-amine hydrochloride] it was 7.34; in that of `Cc1nc(N2CCC3(CC2)Cc2scnc2[C@H]3N)c2ccnn2c1-c1cccc(F)c1F` [Compound 65, (4S)-1'-[7-(2,3-difluorophenyl)-6-methyl-pyrazolo[1,5-a]pyrazin-4-yl]spiro[4,6-dihydrocyclopenta[d]thiazole-5,4'-piperidine]-4-amine hydrochloride], 7.66; in that of `Cc1nc(N2CCC3(CC2)Cc2scnc2[C@H]3N)c2ccnn2c1-c1ccccc1` [Compound 68, (4S)-1'-(6-methyl-7-phenyl-pyrazolo[1,5-a]pyrazin-4-yl)spiro[4,6-dihydrocyclopenta[d]thiazole-5,4'-piperidine]-4-amine hydrochloride], 7.74.
On to `Cc1nccc(-c2c(C)nc(N3CCC4(CC3)Cc3scnc3[C@H]4N)c3ccnn23)c1Cl` [Compound 69, (4S)-1'-[7-(3-chloro-2-methyl-4-pyridyl)-6-methyl-pyrazolo[1,5-a]pyrazin-4-yl]spiro[4,6-dihydrocyclopenta[d]thiazole-5,4'-piperidine]-4-amine hydrochloride], for which the pIC50 is 8.00.
In the case of `Cc1nc(N2CCC3(CC2)Cc2ncccc2[C@H]3N)c2ccnn2c1-c1ccncc1` [Compound 70, (5S)-1'-[6-methyl-7-(4-pyridyl)pyrazolo[1,5-a]pyrazin-4-yl]spiro[5,7-dihydrocyclopenta[b]pyridine-6,4'-piperidine]-5-amine hydrochloride] it was 7.14; in that of `Cc1nc(N2CCC3(CC2)Cc2ncccc2[C@H]3N)c2ccnn2c1-c1ccncc1F` [Compound 71, (5S)-1'-[7-(3-fluoro-4-pyridyl)-6-methyl-pyrazolo[1,5-a]pyrazin-4-yl]spiro[5,7-dihydrocyclopenta[b]pyridine-6,4'-piperidine]-5-amine hydrochloride], 7.52; in that of `Cc1nccc(-c2c(C)nc(N3CCC4(CC3)Cc3ncsc3[C@H]4N)c3ccnn23)c1Cl` [Compound 73, (6S)-1'-[7-(3-chloro-2-methyl-4-pyridyl)-6-methyl-pyrazolo[1,5-a]pyrazin-4-yl]spiro[4,6-dihydrocyclopenta[d]thiazole-5,4'-piperidine]-6-amine hydrochloride], 8.30.
The figure for `Cc1nc(N2CCC3(CC2)Cc2ncsc2[C@H]3N)c2ccnn2c1-c1ccccc1` [Compound 74, (6S)-1'-(6-methyl-7-phenyl-pyrazolo [1,5-a]pyrazin-4-yl)spiro[4,6-dihydrocyclopenta[d]thiazole-5,4'-piperidine] -6-amine hydrochloride] is 8.30; for `Cc1nc(N2CCC3(CC2)Cc2ncsc2[C@H]3N)c2ccnn2c1-c1ccccc1F` [Compound 75, (6S)-1'-[7-(2-fluorophenyl)-6-methyl-pyrazolo[1,5-a]pyrazin-4-yl]spiro[4,6-dihydrocyclopenta[d]thiazole-5,4'-piperidine]-6-amine hydrochloride] it is 8.15; for `COc1cc(-c2c(C)nc(N3CCC4(CC3)Cc3ncccc3[C@H]4N)c3ccnn23)c(F)cn1` [Compound 76, (5S)-1'-[7-(5-fluoro-2-methoxy-4-pyridyl)-6-methyl-pyrazolo [1,5-a]pyrazin-4-yl]spiro[5,7-dihydrocyclopenta[b]pyridine-6,4'-piperidine] -5-amine hydrochloride] it is 7.14.
In the case of `Cc1nc(N2CCC3(CC2)Cc2ncccc2[C@H]3N)c2ccnn2c1-c1ccc2nccnc2c1Cl` [Compound 77, (5S)-1'-[7-(5-chloroquinoxalin-6-yl)-6-methyl-pyrazolo[1,5-a]pyrazin-4-yl]spiro[5,7-dihydrocyclopenta[b]pyridine-6,4'-piperidine]-5-amine] it was 8.40; in that of `Cc1nc(N2CCC3(CC2)Cc2ncccc2[C@H]3N)c2ccnn2c1-c1ccc2nccnc2c1F` [Compound 78, (5S)-1'-[7-(5-fluoroquinoxalin-6-yl)-6-methyl-pyrazolo[1,5-a]pyrazin-4-yl]spiro [5,7-dihydrocyclopenta[b]pyridine-6,4'-piperidine] -5-amine hydrochloride], 7.92; in that of `Cc1nc(N2CCC3(CC2)Cc2ncc(F)cc2[C@H]3N)c2ccnn2c1-c1ccc2nccnc2c1Cl` [Compound 79, (5S)-1'-[7-(5-chloroquinoxalin-6-yl)-6-methyl-pyrazolo[1,5-a]pyrazin-4-yl]-3-fluoro-spiro[5,7-dihydrocyclopenta[b]pyridine-6,4'-piperidine]-5-amine hydrochloride], 8.00.
`Cc1nc(N2CCC3(CC2)Cc2cc(F)c(F)cc2[C@H]3N)c2ccnn2c1-c1cnn(C)c1C` [Compound 80, (1S)-1'-[7-(1,5-dimethylpyrazol-4-yl)-6-methyl-pyrazolo[1,5-a]pyrazin-4-yl]-5,6-difluoro-spiro [indane-2,4'-piperidine]-1-amine hydrochloride]: the pIC50 is 7.77.
